Experimental data published in patent US20230218555A1, “CREATINE, ITS DERIVATIVES, COMPOSITIONS AND METHODS OF USE THEREOF” (priority 2021, published 2023).
“Also recorded” adds a separate entry of the source.

Legend:
Format in all cases: in vivo, human
[1] = test system: Rheumatoid Arthritis (RA); test: Example 26: rheumatoid arthritis, intralesional injection and topical; conditions: 3-9% in WP 82 in nitrile gloves, 1 hour twice daily, after the creatine injections
Description: A subject, described in an earlier Example, after approximately 4 months of worsening symptoms, and finger joint enlargements on both hands, realized that they were rapidly developing RA, especially when a rheumatoid nodule enlarged over the terminal joint of the left […] finger to a size of approximately 1 cm in diameter, and about 3 mm thick. The nodule was initially injected with 0.15 ml of a 2% aqueous solution/suspension of creatine monohydrate once weekly for 4 injections. […] Thereafter the subject wore a nitrile glove containing a few drops of C15 3-9% dissolved in WP 82 for an hour twice daily on the left hand only. After another 2 months C15 9% in WP 82 was topically applied by means of their wearing nitrile gloves containing the C15 solution for 1 hour twice daily. […] It is intended for the subject to continue topical treatment in one form or another for an indefinite time forward.

painful left knee = test: Example 10: acute knee pain after physical trauma
From the text: A subject with painful left knee gave a history of physical trauma to the left knee while cleaning their house. Degree of pain was sufficiently intense that it required them to wear a knee brace throughout the day, daily. […] The subject was provided a formulation of N-acetyl ethyl creatinate 1.5% dissolved in water: propylene glycol 8:2 for topical application.

eczema = test: Examples 30 and 37: itch and eczema
From the text: subject two, with a 25 year history of eczema, was provided a topical formulation of 6% C15 in a lotion made up of hydrophilic ointment USP 35% diluted with 65% water. […] They emphasized, however, that their eczema worsens in the autumn and winter, so their final judgment needs to be delayed from the summer season to several months later.
subject four with a 14 year history of eczema was provided the same lotion.
subject three, with a history of eczema for 35 years, was provided the same solution. […] They have expressed great gratitude and hopes that the same beneficial results will persist during the autumn and winter seasons.
subject two, with a 25 year history of eczema, was provided a topical formulation of 6% C15 in a lotion made up of hydrophilic ointment USP 35% diluted with 65% water. After ten days of topical applications, itch was relieved for intervals of 1.5 hour up to 24 hours. […] Sites of itch were treated with prompt application of the above lotion which completely aborted further development.
subject four with a 14 year history of eczema was provided the same lotion. […] Patient has moved from the area and has been lost to long term follow up.
subject three, with a history of eczema for 35 years, was provided the same formulation. […] They expressed great gratitude and hoped that the same beneficial results would persist during the autumn and winter months.
They reported: “I use it sparingly. If I feel any itch or see a little patch I put it on and it's gone like the next day. […] It's so great. It's miraculous!”

bunion on right foot = test: Example 21: subcutaneous injection over bunion; conditions: weekly subcutaneous injections of 1.5% aqueous solution
From the text: A subject presented with bunion on right foot that has been enlarging over the past decade. […] Weekly injections will be continued for another month or two to determine whether complete resolution will be achieved.

erythematous pharyngitis = test: Example 31: sore throat, spray mist
Description: A subject, upon arising from bed in the morning, was acutely aware of a severe sore throat. […] They were provided, in a 2 oz spray container, a 3% aqueous solution of C15 that they sprayed into their moth toward the inflamed pharynx. […] Repeated spraying during the day were followed by longer pain free intervals. They reported that at 7 PM the last pain free interval had been 1 hour. Next morning the pharyngitis had improved, and the subject used spray mist less frequently.

[2] = test system: osteoarthritis of multiple joints; test: Example 18: whole body application
Description: A subject with continually worsening very painful osteoarthritis of multiple joints for 15-16 years prepared the following formulation: […]
N-Acetyl Ethyl Creatinate (C15): Water: Propylene glycol: Mineral Oil: Sodium lauryl sulfate […].
After taking a morning shower, the entire 40 ml formulation was applied by themself and their assistants to their entire body, except the scalp. […] The subject was without any sense of pain for 4.5 hours when mild painful discomfort in the neck was sensed. Over the next 3 hours pain in all joints returned to usual substantial levels.

painful right shoulder = test: Example 24: osteoarthritis, shoulder
From the text: The same subject above has had painful right shoulder for several months.

[3] = test system: cervical and thoracic spine; test: Example 24: osteoarthritis, spine
Description: The same subject above topically applied an adhesive dressing, 5 cm wide and 30 cm long, saturated with a solution of C15 4% in WP 82 to the upper spine.
Over a period of 3 months, subcutaneous injections of 0.6 ml of the above C15 solution were injected subcutaneously into each of 5 intervertebral sites of the cervical and thoracic spine.

[4] = test system: muscular pain of upper right back, dystonia; test: Example 23: pain of dystonia, local subcutaneous injections
Description: Five sites of the upper back were injected with 0.3 ml C15 in aqueous solution using insulin syringes with 30G short needles. […] At that time the injections were repeated just before […] departed on a trip to Europe.

[5] = test system: osteoarthritis of the knees; test: Example 24: osteoarthritis, knees
From the text: Several days later, a repeated application of the same procedure gave the same results.

[6] = 6% lotion as needed, person three

CCOC(=O)CN(C)C(N)=NC(C)=O [Compound C15, N-acetyl ethyl creatinate]
appearance of hands after 9 months of treatments [1]: both hands appear to be completely normal | time to pain relief after application (painful left knee; 1.5% in water: propylene glycol 8:2, topical): about 2 minutes | extent of pain relief (painful left knee; 1.5% in water: propylene glycol 8:2, topical, person): pain in the knee completely vanished | recurrence of pain (painful left knee; at report 10 days later): Pain had not recurred | itch after 4 days of application (eczema; [6]): itch was now negligible; also recorded: itch became negligible | signs of eczema on skin (eczema; [6]): skin was nearly entirely free of signs of eczema; also recorded: skin became nearly entirely free of signs of eczema | extent of itch relief (eczema; 6% lotion, 2 weeks, person four): itch was relieved completely | duration of itch relief after a single application (eczema; 6% lotion, person four): 24 to 48 h | eczema after ten days (eczema; 6% lotion, person two): felt that their eczema was undergoing resolution | eczema at the end of the following February (eczema; 6% lotion, person two): eczema was still under almost complete resolution | skin at the end of February (eczema; person three): their skin has remained clear | change of bunion (bunion on right foot): distinct resolution in mass | relief of pain (erythematous pharyngitis; 3% aqueous solution sprayed toward pharynx): immediate complete relief of pain | duration of relief, first spraying (erythematous pharyngitis; 3% aqueous spray): 25 min | last pain free interval at 7 PM (erythematous pharyngitis; repeated spraying during the day): 1 h | extent of pain relief ([2]; 40 ml formulation applied to entire body except scalp, person): all pain ceased in all previously painful joints | duration without any sense of pain ([2]; whole body application): 4.5 h | time to pain relief ([2]; whole body application): about 5 minutes | duration of relief (painful right shoulder; subcutaneous 1 ml): 6 to 7 days | extent of pain relief (painful right shoulder; subcutaneous 1 ml of 1.5% aqueous solution, three occasions, person): complete relief of pain | time to pain relief ([3]; 4% dressing): within an hour | duration of relief ([3]; 4% dressing, until removed): about 8 hours | extent of pain relief ([3]; adhesive dressing saturated with 4% in WP 82 on upper spine, person): complete relief of pain | extent of pain relief ([3]; subcutaneous 0.6 ml into each of 5 intervertebral sites, five occasions): complete relief of pain | duration of relief ([3]; subcutaneous 0.6 ml, 5 sites): 1-4 weeks | duration of relief ([4]; first injections): 2 weeks | extent of pain relief ([4]; five sites of upper back injected with 0.3 ml aqueous solution): Complete relief of pain | time to pain relief ([4]; five sites, 0.3 ml): within the next hour | duration of relief after repeated injections ([4]; repeated injections): lasting beyond two week period | duration of pain relief ([5]; 8% in WP 82, even with occlusion, person, severe osteoarthritis): 3 to 4 h | extent of pain relief ([5]; 8% in WP 82 on gauze wrapping occluded with plastic wrap, overnight, person): complete relief of pain | duration of complete relief (sleep) ([5]; 8% with occlusion overnight): 8 h | diminishment of pain after removal in the morning ([5]; 8% with occlusion, person): 85-90% | duration of diminishment after removal ([5]; 8% with occlusion, person): 7 to 8 h
